Data reported in PubChem BioAssay AID248 (DTP/NCI, 2004).
Toxic doses and inconclusive results are not listed. Rule as the data show it: active = T/C of 150% or more; inactive = T/C below 125%.

Test system: L1210 leukemia ip in BDF1 mice, survival T/C
Experiment: NCI In Vivo Anticancer Drug Screen. Data for tumor model L1210 Leukemia (intraperitoneal) in B6D2F1 (BDF1) mice
Conditions: endpoint: mean survival time, higher = longer survival
Summary of the method: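 Antitumor effect is assessed in tumor-bearing animals. Survival in the compound arm is compared with a vehicle-dosed control arm and expressed as their quotient.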

[1] = dose: 100.0 mg/kg/injection, schedule: Q04DX003 (ip), vehicle: Klucel (hydroxypropylcellulose) (HPC)
[2] = dose: 200.0 mg/kg/injection, schedule: Q01DX009 (ip), vehicle: saline with Tween-80
[3] = dose: 400.0 mg/kg/injection, schedule: Q01DX009 (ip), vehicle: saline with Tween-80
[4] = dose: 100.0 mg/kg/injection, schedule: Q01DX009 (ip), vehicle: saline with Tween-80

Measured: T/C

O=c1[nH]c2ccc(Br)cc2cc1Br
inactive: dose: 100.0 mg/kg/injection, schedule: Q01DX001 (ip), vehicle: saline 97 % of control | dose: 200.0 mg/kg/injection, schedule: Q01DX001 (ip), vehicle: saline 97 % of control | dose: 400.0 mg/kg/injection, schedule: Q01DX001 (ip), vehicle: saline 97 % of control

O=C(Nc1ccccc1)Nc1cccc(C(F)(F)F)c1
inactive: dose: 50.0 mg/kg/injection, schedule: Q01DX001 (ip), vehicle: carboxymethylcellulose (CMC) 104 % of control | dose: 100.0 mg/kg/injection, schedule: Q01DX001 (ip), vehicle: carboxymethylcellulose (CMC) 102 % of control | dose: 200.0 mg/kg/injection, schedule: Q01DX001 (ip), vehicle: carboxymethylcellulose (CMC) 107 % of control | dose: 400.0 mg/kg/injection, schedule: Q01DX001 (ip), vehicle: carboxymethylcellulose (CMC) 109 % of control

OC(CNCCc1ccccc1)COc1cccc2ccccc12 (stereo unspecified)
inactive: dose: 25.0 mg/kg/injection, schedule: Q04DX003 (ip), vehicle: Klucel (hydroxypropylcellulose) (HPC) 97 % of control | dose: 50.0 mg/kg/injection, schedule: Q04DX003 (ip), vehicle: Klucel (hydroxypropylcellulose) (HPC) 95 % of control | [1] 95 % of control

S=c1c2ccccc2nc2n1CCS2
inactive: [2] 92 % of control | [3] 87 % of control

CN(C)CCC(=O)c1ccc2ccccc2c1
inactive: dose: 9.38 mg/kg/injection, schedule: Q01DX001 (ip), vehicle: saline 100 % of control | dose: 18.75 mg/kg/injection, schedule: Q01DX001 (ip), vehicle: saline 101 % of control | dose: 37.5 mg/kg/injection, schedule: Q01DX001 (ip), vehicle: saline 105 % of control

COc1cc(OC)c(C(=O)c2ccccc2[N+](=O)[O-])c(OC)c1
inactive: [4] 91 % of control | dose: 100.0 mg/kg/injection, schedule: Q04DX003 (ip), vehicle: saline 99 % of control | [2] 92 % of control | dose: 200.0 mg/kg/injection, schedule: Q04DX003 (ip), vehicle: saline 99 % of control | [3] 96 % of control | dose: 400.0 mg/kg/injection, schedule: Q04DX003 (ip), vehicle: saline 100 % of control

c1ccc(C[Se]Cc2ccccc2)cc1
inactive: dose: 100.0 mg/kg/injection, schedule: Q04DX003 (ip), vehicle: other 92 % of control

CC(C)CC(Br)C(=O)NC(CC(C)C)C(=O)O (stereo unspecified)
inactive: [4] 96 % of control | [2] 88 % of control | [3] 92 % of control

CCCCCCCCCCCCCCCCN(C(C)C)S(=O)(=O)c1ccc(Cl)c([N+](=O)[O-])c1
inactive: dose: 100.0 mg/kg/injection, schedule: Q01DX009 (ip), vehicle: saline sonified 106 % of control | [1] 91 % of control | dose: 200.0 mg/kg/injection, schedule: Q01DX009 (ip), vehicle: saline sonified 96 % of control | dose: 200.0 mg/kg/injection, schedule: Q04DX003 (ip), vehicle: Klucel (hydroxypropylcellulose) (HPC) 94 % of control | dose: 400.0 mg/kg/injection, schedule: Q01DX009 (ip), vehicle: saline sonified 89 % of control | dose: 400.0 mg/kg/injection, schedule: Q04DX003 (ip), vehicle: Klucel (hydroxypropylcellulose) (HPC) 93 % of control

CN=C(NC)c1ccc(NC(=O)c2ccc(C(=O)Nc3ccc(C(=NC)NC)cc3)c([N+](=O)[O-])c2)cc1
inactive: dose: 1.88 mg/kg/injection, schedule: Q01DX Z (ip), vehicle: saline 100 % of control | dose: 3.75 mg/kg/injection, schedule: Q01DX Z (ip), vehicle: saline 111 % of control | dose: 7.5 mg/kg/injection, schedule: Q01DX Z (ip), vehicle: saline 108 % of control

O=C(O)C1=C(C(=O)O)C2CCC1C2
inactive: dose: 100.0 mg/kg/injection, schedule: Q04DX003 (ip), vehicle: saline with Tween-80 100 % of control | dose: 200.0 mg/kg/injection, schedule: Q04DX003 (ip), vehicle: saline with Tween-80 88 % of control
